Results from patent US9884860B2, “Fused pyrroledicarboxamides and their use as pharmaceuticals” (SANOFI, priority 2012, dated 2018).

Biological target: Human TASK-1 channels (Homo sapiens (Human), UniProt O14649)
Test: Determination of the activity on the TASK-1 channel in Xenopus oocytes (two-microelectrode voltage clamp)
Format: cell-based
Settings: for IC50: human TASK-1 expressed in Xenopus oocytes, room temperature, read-out: IC50 value for TASK-1 inhibition
Protocol: Determination of the activity on the TASK-1 channel in Xenopus oocytes
Human TASK-1 channels were expressed in Xenopus oocytes. For this purpose, oocytes were isolated from Xenopus laevis and defoliculated. Subsequently, TASK-1-encoding RNA synthesized in vitro was injected into the oocytes. After two days of TASK-1 protein expression, TASK-1 currents were measured by two-microelectrode voltage clamp. Data were acquired and analyzed using a TEC-10cx amplifier (NPI Electronic, Tamm, Germany) connected to an ITC-16 interface (Instrutech Corp., Long island, USA) and Pulse software (HEKA Elektronik, Lambrecht, Germany). Oocytes were clamped to −90 mV and TASK-1 mediated currents were measured during 500 ms voltage pulses to 40 mV. Oocytes were continuously superfused with ND96 buffer containing 98 mM sodium chloride, 2 mM potassium chloride, 1.8 mM calcium chloride, 1 mM magnesium chloride, 5 mM 4-(2-hydroxyethyl)-piperazine-1-ethanesulfonic acid (HEPES: pH adjusted to 7.4 with sodium hydroxide). All experiments were performed at room temperature. Test compounds were consecutively added to the bath solution at rising concentrations. Compound effects were calculated as the percentage inhibition of TASK-1 control current before compound addition. IC50 values were obtained by fitting the data to the general dose-response equation.

Chain of Human TASK-1 channels (O14649 whole entry): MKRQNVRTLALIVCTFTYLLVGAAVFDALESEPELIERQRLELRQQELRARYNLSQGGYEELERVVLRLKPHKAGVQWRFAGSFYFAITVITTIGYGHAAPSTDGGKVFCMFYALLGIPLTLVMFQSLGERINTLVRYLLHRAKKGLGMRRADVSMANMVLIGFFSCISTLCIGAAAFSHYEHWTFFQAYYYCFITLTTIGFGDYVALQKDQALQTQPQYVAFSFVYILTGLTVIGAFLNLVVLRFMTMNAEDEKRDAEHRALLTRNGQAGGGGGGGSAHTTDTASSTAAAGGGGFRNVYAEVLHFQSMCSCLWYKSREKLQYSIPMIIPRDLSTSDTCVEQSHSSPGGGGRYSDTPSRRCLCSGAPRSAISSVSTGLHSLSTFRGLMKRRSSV

IC50 [nM] | inhibition at 5 µM (compound concentration 5 μM) [%] | Compound
210 |  | 5,6,7,8-Tetrahydro-indolizine-1,3-dicarboxylic acid 3-[(3,5-dimethyl- isoxazol-4-yl)-amide] 1-[((R)-1-phenyl-propyl)-amide] [16nd]
2860 |  | CC[C@@H](NC(=O)c1cc(C(=O)NC(C)c2cnccn2)c2n1CCOC2)c1ccccc1 (single isomer, unassigned; diastereomer 1) [16jw]
700 |  | CC(NC(=O)c1cc(C(=O)N[C@@H](c2ccc(F)cc2)C(C)C)n2c1COCC2)c1cnccn1 (single isomer, unassigned; diastereomer 1) [16lq]
430 |  | CC[C@@H](NC(=O)c1cc(C(=O)NC(C)c2cnccn2)c2n1CCOC2)c1ccc(F)cc1F (single isomer, unassigned; diastereomer 1) [16pl]
 | 91 | CC[C@@H](NC(=O)c1cc(C(=O)NCc2ccc3cc[nH]c3c2)n2c1COCC2)c1ccccc1 [16je, 3,4-Dihydro-1H-pyrrolo[2,1-c][1,4]oxazine-6,8-dicarboxylic acid 6-[(1H-indol-6-ylmethyl)-amide] 8-[((R)-1-phenyl-propyl)-amide]]
460 |  | CC[C@@H](NC(=O)c1cc(C(=O)NCc2cncc(F)c2)n2c1CCCC2)c1ccccc1 [16nb, 5,6,7,8-Tetrahydro-indolizine-1,3-dicarboxylic acid 3-[(5-fluoro-pyridin-3-ylmethyl)-amide] 1-[((R)-1-phenyl-propyl)-amide]]

The next lines start with the compound.

Compound | IC50 [nM] | inhibition at 5 µM (compound concentration 5 μM) [%]
3,4-Dihydro-1H-pyrrolo[2,1-c][1,4]oxazine-6,8-dicarboxylic acid 8-[((R)- 1-phenyl-propyl)-amide] 6-{[(R)-1-(5-trifiuoromethyl-pyridin-3-yl)- propyl]-amide} [16hn] | 690 | 
3,4-Dihydro-1H-pyrrolo[2,1-c][1,4]oxazine-6,8-dicarboxylic acid 8-{[(R)- 1-(6-rnethoxy-pyridin-3-yl)-propy]-amide} 6-[((R)-1-phenyl-propyl)- amide] [16jo] | 250 | 
CC[C@@H](NC(=O)c1cc(C(=O)NC(C)c2cnccn2)n2c1COCC2)c1ccccc1 (single isomer, unassigned; diastereomer 1) [16if] | 1100 | 
CCC(NC(=O)c1cc(C(=O)N2CCC[C@@H]2C)n2c1COCC2)c1ncc(C(F)(F)F)s1 (single isomer, unassigned; diastereomer 2) [16ce] | 280 | 
CCC(NC(=O)c1cc(C(=O)N[C@H](CC)c2ccccc2)c2n1CCOC2)c1cnc(OC)nc1 (single isomer, unassigned; diastereomer 2) [16hv] | 760 | 
CCC(NC(=O)c1cc(C(=O)N2CCC[C@@H]2C)n2c1COCC2)c1ccc(S(F)(F)(F)(F)F)cc1 (some centres unmarked) [16bf] | 740 | 
CC[C@@H](NC(=O)c1cc(C(=O)N2CCC[C@@H]2C)n2c1COCC2)c1ccc2c(c1)OC(F)(F)O2 [16bz, 6-((S)-2-Methyl-pyrrolidine-1-carbonyl)-3,4-dihydro-1H-pyrrolo[2,1-c][1,4]oxazine-8-carboxylic acid [(R)-1-(2,2-difluoro-benzo[1,3]dioxol-5-yl)-propyl]-amide] | 200 | 
CC[C@H](NC(=O)c1cc(C(=O)N[C@H](C)c2ccc(F)cc2)n2c1COCC2)c1cnc(OC)cn1 [16dv, 3,4-Dihydro-1H-pyrrolo[2,1-c][1,4]oxazine-6,8-dicarboxylic acid 6-{[(R)-1-(4-fluoro-phenyl)-ethyl]-amide} 8-{[(S)-1-(5-methoxy-pyrazin-2-yl)-propyl]-amide}] | 190 | 
